{
  "source": "patent EP1343508B1",
  "about": "“USE OF AN OESTROGEN IN THE MANUFACTURE OF A COMPOSITION CONTAINING OESTROGEN FOR THE TREATMENT OF ATROPHIC VAGINITIS” (Novo Nordisk Femcare AG, priority 2000, dated 2002)",
  "key": {"[1]": {"test_system": "postmenopausal women with atrophic vaginitis", "test": "Vaginal symptom composite score (dryness, soreness, irritation), Example 3", "assay_type": "in vivo", "conditions": "scale 0-3", "experimental": "Efficacy was measured with composite scores of vaginal symptoms (dryness, soreness, and irritation) and vaginal health (secretions, epithelial integrity, surface thickness, and pH). Vaginal and urethral cytology analyses were also performed, and the vaginal maturation value was determined. Safety assessments included endometrial biopsies. […] All vaginal tablets were identical in appearance. Patients inserted 1 tablet daily for 14 days. Thereafter, patients inserted 1 tablet twice per week (Sunday and Thursday) for the remainder of the trial. Patients were to insert the tablets at the same time each day (preferably at bedtime). Patients were evaluated for efficacy and safety at Week - 4 (screening), Week 0 (baseline), and Weeks 2, 7, and 12. Efficacy assessments included patient ratings of atrophic vaginitis symptoms, investigator ratings of vaginal health, and vaginal and urethral cytology. Patients used intensity ratings of none, mild, moderate, or severe to evaluate atrophic vaginitis symptoms (dryness, soreness, irritation, dyspareunia, and vaginal discharge). Intensity ratings were assigned ascending scores from 0 (none) to 3 (severe) for analysis. A composite score for atrophic vaginitis symptoms was defined as the average of the individual symptom scores for dryness, soreness, and irritation. […] The composite score and the change from baseline for the composite score were examined at each time point. Differences within and between treatment groups were analyzed using an analysis of variance (ANOVA). […] Efficacy was measured with composite scores of vaginal symptoms (dryness, soreness, and irritation) and vaginal health (secretions, epithelial integrity, surface thickness, and pH). Vaginal and urethral cytology analyses were also performed, and the vaginal maturation value was determined. Safety assessments included endometrial biopsies. […] Patients were evaluated for efficacy and safety at Week - 4 (screening), Week 0 (baseline), and Weeks 2, 7, and 12. […] Differences within and between treatment groups were analyzed using an analysis of variance (ANOVA)."}, "[2]": {"test_system": "superficial urethral cells", "test": "Urethral cytology, percentage of superficial cells, Example 3", "assay_type": "in vivo, postmenopausal women", "experimental": "(§1) Efficacy was measured with composite scores of vaginal symptoms (dryness, soreness, and irritation) and vaginal health (secretions, epithelial integrity, surface thickness, and pH). Vaginal and urethral cytology analyses were also performed, and the vaginal maturation value was determined. Safety assessments included endometrial biopsies.\n(§2) All vaginal tablets were identical in appearance. Patients inserted 1 tablet daily for 14 days. Thereafter, patients inserted 1 tablet twice per week (Sunday and Thursday) for the remainder of the trial. Patients were to insert the tablets at the same time each day (preferably at bedtime). Patients were evaluated for efficacy and safety at Week - 4 (screening), Week 0 (baseline), and Weeks 2, 7, and 12.\n(§3) Vaginal and urethral cell samples were harvested and analyzed by independent cytologists to determine the percentages of parabasal, intermediate, and superficial cells. Maturation values were calculated according to the following equation: maturation value = 1.0 × [superficial cells, %] + 0.5 × [intermediate cells, %] [formula] Endometrial biopsies were performed at the end of the study in patients with intact uteri. The number of patients with abnormal biopsies was compared between treatment groups."}, "[3]": {"test_system": "superficial vaginal and urethral cells", "test": "Superficial vaginal and urethral cells taken together, subjects per category, Example 3", "assay_type": "in vivo, postmenopausal women", "conditions": "for percentage of subjects with both superficial vaginal and urethral cells less than or equal to 5% / subjects with percentages of both superficial vaginal and urethral cells less than or equal to 5%: Week 0; for percentage of subjects with increases in percentages of both superficial vaginal and urethral cells / subjects with increases in percentages of both superficial vaginal and urethral cells: Week 12", "experimental": "as §1, §2, §3"}},
  "note": "Marks after values point to notes of the source that are not given here.",
  "data": [
    {"smiles": "C[C@]12CC[C@@H]3c4ccc(O)cc4CC[C@H]3[C@@H]1CC[C@@H]2O", "note": "[E2, 17β-estradiol]", "values": [
      {"measurement": "vaginal symptom composite score", "setting": "[1]; 10 µg E2, Week 12", "result": "~0.6"},
      {"measurement": "vaginal symptom composite score", "setting": "[1]; 25 µg E2, Week 12", "result": "approximately 0.5"},
      {"measurement": "vaginal symptom composite score", "setting": "[1]; each treatment group (25 or 10 µg E2), Week 0 (baseline)", "result": "approximately 1.9"},
      {"measurement": "percentage of superficial urethral cells, Mean", "setting": "[2]; 10 µg E2, Week 0", "result": 2.5, "unit": "%"},
      {"measurement": "percentage of superficial urethral cells, Mean", "setting": "[2]; 10 µg E2, Week 2", "result": 16.7, "unit": "%"},
      {"measurement": "percentage of superficial urethral cells, mean Change from baseline", "setting": "[2]; 10 µg E2, Week 2", "result": "14.1^c %"},
      {"measurement": "percentage of superficial urethral cells, Mean", "setting": "[2]; 10 µg E2, Week 7", "result": 13.5, "unit": "%"},
      {"measurement": "percentage of superficial urethral cells, mean Change from baseline", "setting": "[2]; 10 µg E2, Week 7", "result": 10.7, "unit": "%"},
      {"measurement": "percentage of superficial urethral cells, Mean", "setting": "[2]; 10 µg E2, Week 12", "result": 9.5, "unit": "%"},
      {"measurement": "percentage of superficial urethral cells, mean Change from baseline", "setting": "[2]; 10 µg E2, Week 12", "result": 6.8, "unit": "%"},
      {"measurement": "percentage of superficial urethral cells, Mean", "setting": "[2]; 25 µg E2, Week 0", "result": 3.2, "unit": "%"},
      {"measurement": "percentage of superficial urethral cells, Mean", "setting": "[2]; 25 µg E2, Week 2", "result": 21.9, "unit": "%"},
      {"measurement": "percentage of superficial urethral cells, mean Change from baseline", "setting": "[2]; 25 µg E2, Week 2", "result": "19.2^a,b %"},
      {"measurement": "percentage of superficial urethral cells, Mean", "setting": "[2]; 25 µg E2, Week 7", "result": 17.6, "unit": "%"},
      {"measurement": "percentage of superficial urethral cells, mean Change from baseline", "setting": "[2]; 25 µg E2, Week 7", "result": "14.2^d %"},
      {"measurement": "percentage of superficial urethral cells, Mean", "setting": "[2]; 25 µg E2, Week 12", "result": 11.2, "unit": "%"},
      {"measurement": "percentage of superficial urethral cells, mean Change from baseline", "setting": "[2]; 25 µg E2, Week 12", "result": 7.5, "unit": "%"},
      {"measurement": "percentage of subjects with both superficial vaginal and urethral cells less than or equal to 5%", "setting": "[3]; 10 µg E2", "result": 85, "unit": "%"},
      {"measurement": "subjects with percentages of both superficial vaginal and urethral cells less than or equal to 5%", "setting": "[3]; 10 µg E2", "result": 53, "unit": "subjects"},
      {"measurement": "percentage of subjects with increases in percentages of both superficial vaginal and urethral cells", "setting": "[3]; 10 µg E2", "result": 71, "unit": "%"},
      {"measurement": "subjects with increases in percentages of both superficial vaginal and urethral cells", "setting": "[3]; 10 µg E2", "result": 44, "unit": "subjects"},
      {"measurement": "percentage of subjects with both superficial vaginal and urethral cells less than or equal to 5%", "setting": "[3]; 25 µg E2", "result": 81, "unit": "%"},
      {"measurement": "subjects with percentages of both superficial vaginal and urethral cells less than or equal to 5%", "setting": "[3]; 25 µg E2", "result": 57, "unit": "subjects"},
      {"measurement": "percentage of subjects with increases in percentages of both superficial vaginal and urethral cells", "setting": "[3]; 25 µg E2", "result": 74, "unit": "%"},
      {"measurement": "subjects with increases in percentages of both superficial vaginal and urethral cells", "setting": "[3]; 25 µg E2", "result": 52, "unit": "subjects"}
    ]}
  ]
}
